Consider two substances from US20230075170A1, “NOVEL SALTS OF NILOTINIB AND POLYMORPHIC FORMS THEREOF” (CIPLA LIMITED, priority 2020, published 2023).

The nature of data set [1]: Hygroscopicity (statement only). Format: physicochemical.
Data set [2] in a line: Solubility (statement only). Format: physicochemical.
Data set [3] in a line: Stability towards moisture and humidity (statement only). It is filed as physicochemical.
A short description of data set [4]: Chemical stability on storage (temperature and relative humidity).
Excerpt: Conditions evaluated include temperature and relative humidity (RH).
Setting [5] is: 25 ± 2° C./60 ± 5% RH, 0 months.
[6] abbreviates: 25 ± 2° C./60 ± 5% RH, 2 months.
Setting [7] is: 25 ± 2° C./60 ± 5% RH, 3 months.

Turning to Nilotinib D-malate, in data set [1], the hygroscopicity result is recorded as “not hygroscopic”. Besides, in data set [2], the “solubility in physiologically acceptable solvents” value is on record as “readily soluble”. In addition, the “stability towards moisture and humidity” value in data set [3] is listed as “relatively stable”.

For Nilotinib D-tartrate, the hygroscopicity entry in data set [1] is reported as “not hygroscopic”. Besides, in data set [3], the “stability towards moisture and humidity” value was “relatively stable”. Further, the “5- methyl isomer impurity (NMT 3 ppm)” value turned out to be 0.6 ppm in data set [4] (2 to 8° C., 0 months); 0.5 ppm in data set [4] (2 to 8° C., 1 month); 0.7 ppm in data set [4] (2 to 8° C., 2 months); 1.1 ppm in data set [4] (2 to 8° C., 3 months); 0.6 ppm in data set [4] (setting [5]); 0.5 ppm in data set [4] (25 ± 2° C./60 ± 5% RH, 1 month). Besides, the “5- methyl isomer impurity (NMT 3 ppm)” value in data set [4] (setting [6]) worked out at 0.7 ppm; in data set [4] (setting [7]) it was 1.1 ppm. In addition, the “Total impurities (NMT 0.4%)” value in data set [4] (2 to 8° C., 0 months) was determined as 0.01%; in data set [4] (2 to 8° C., 3 months), 0.05%; in data set [4] (setting [5]), 0.01%; in data set [4] (setting [7]), 0.04%. In addition, the XRPD result is given as “Form C1” in data set [4] (2 to 8° C., 0 months); “Stable” in data set [4] (2 to 8° C., 1 month); “Stable” in data set [4] (2 to 8° C., 2 months); “Stable” in data set [4] (2 to 8° C., 3 months); “Form C1” in data set [4] (setting [5]); “Stable” in data set [4] (25 ± 2° C./60 ± 5% RH, 1 month). In addition, the XRPD entry in data set [4] (setting [6]) and in data set [4] (setting [7]) was “Stable” throughout. The “chemical stability / long term storage stability” value in data set [4] (temperature and relative humidity (RH)) is on record as “chemically more stable”.
